Assay results taken from PMC3909101, “Chemical Rescue and Inhibition Studies to Determine the Role of Arg301 in Phosphite Dehydrogenase” (PLoS ONE, 2014).
“And” between values parts separate entries of the source, which are not always exact repeats. Equal values may be shown once. “Also recorded” adds a separate entry of the source. Read-outs that look alike come from different tables or passages of the source.

What was measured:
17X-PTDH-R301A [1] = molecular target: T1, 17X-PTDH-R301A (Stutzerimonas stutzeri (Pseudomonas stutzeri), UniProt O69054, D13E/E130K/I150F/M26I/Q132R/Q137R/R301A/V71I, form not given); format: biochemical, Pseudomonas stutzeri WM88; settings: saturating rescue reagent (>20 K R), deuterated vs protiated phosphite, pH 7.25, 25°C
[2] = parameters: method as in earlier work; settings: cited from earlier work
17X-PTDH-R301A [3] = molecular target: T1, 17X-PTDH-R301A; format: biochemical, Pseudomonas stutzeri WM88; settings: for k rescue/ K m, phosphite: R301A with saturating rescue reagent; for EC50: pH 7.25, 25°C, read-out: K R (concentration of rescue reagent at which half-maximal rate was observed); for K m, phosphite (apparent): rescue agent and NAD+ saturating (>10 K R); for Rescue of activity of the R301A mutant: exogenous reagent, unsuccessful ones tested at 20–100 mM depending on solubility
[4] = Expected proportion of aminoguanidine in unprotonated and protonated states at various pH values; format: physicochemical
17X-PTDH-R301A [5] = molecular target: T1, 17X-PTDH-R301A; format: biochemical, Pseudomonas stutzeri WM88
17X-PTDH [6] = assay: Phosphite dissociation constant for 17X-PTDH by the method of Klinman and Matthews; format: biochemical, Pseudomonas stutzeri WM88; settings: calculated from ^D(V/K), ^DV and K m,Phosphite
R301A = assay: Phosphite Kd and Km for R301A; format: biochemical, Pseudomonas stutzeri WM88
H292A mutant of wt-PTDH = H292A mutant of wt-PTDH (Stutzerimonas stutzeri, UniProt O69054, H292A); format: biochemical, Pseudomonas stutzeri WM88; settings: 10–100 mM reagent
H292G mutant of wt-PTDH = H292G mutant of wt-PTDH (Stutzerimonas stutzeri, UniProt O69054, H292G); format: biochemical, Pseudomonas stutzeri WM88; settings: 10–100 mM reagent
17X-PTDH-R301A [7] = molecular target: T1, 17X-PTDH-R301A; format: biochemical, Pseudomonas stutzeri WM88; settings: pH 7.25, read-out: K is
17X-PTDH [8] = assay: Sulfite inhibition of 17X-PTDH; format: biochemical, Pseudomonas stutzeri WM88; settings: competitive vs phosphite, 4 mM NAD+, pH 7.25, read-out: K is
Description: Reactions were performed in 100 mM MOPS (pH 7.25) at saturating concentrations of 4 mM NAD^+. Sodium sulfite was adjusted to the desired concentration by serial dilution from a 0.5 M stock solution. Sulfite concentration was adjusted to 0, 50, 100, 150, 200 or 300 µM for R301A or 0, 0.5, 1, 5, 10 or 20 µM for 17X-PTDH. An experiment was also performed with 17X-PTDH-R301A and saturating concentrations of 300 mM aminoguanidine, with sulfite concentrations of 0, 100, 200, 300, 400 or 500 µM. The reaction was initiated by addition of PTDH (0.1 µM final concentration, 5 µM for R301A). At each concentration of inhibitor, phosphite concentration was varied. The data was analyzed in GraFit 7.0 [28] using the equation for competitive inhibition (Equation 3) to fit all of the data, where I is the inhibitor concentration and K is the dissociation constant for a competitive inhibitor [29]. [drawing 5] (3)

[9] = wt enzyme, pH 7.25, cited from earlier work
[10] = wt enzyme, pH 7.25; ref (1) Relyea et al., 2005; cited from earlier work
[11] = R301A, k cat,apparent at saturating rescue reagent, 100 mM MOPS pH 7.25, 25°C, 4 mM NAD+
[12] = 0–2.0 mM aminoguanidine, 1 M phosphite, 4 mM NAD+, first experiment
[13] = repeat with a different batch of enzyme and reagents

T1 sequence (O69054 1-329 D13E/E130K/I150F/M26I/Q132R/Q137R/R301A/V71I): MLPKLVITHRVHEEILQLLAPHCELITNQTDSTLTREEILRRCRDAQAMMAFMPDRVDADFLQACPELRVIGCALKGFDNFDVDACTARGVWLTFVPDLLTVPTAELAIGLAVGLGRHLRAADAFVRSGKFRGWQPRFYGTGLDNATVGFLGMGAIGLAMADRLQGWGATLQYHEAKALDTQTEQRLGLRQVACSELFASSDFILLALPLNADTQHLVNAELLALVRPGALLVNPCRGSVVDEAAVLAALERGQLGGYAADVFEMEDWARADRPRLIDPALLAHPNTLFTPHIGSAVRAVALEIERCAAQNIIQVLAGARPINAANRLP

For `CN=C(N)N` [methylguanidine], the “^D k cat” value (17X-PTDH-R301A [1]) is given as 1.4 (0.1), the “^D k cat/K m” value (17X-PTDH-R301A [1]) is given as 1.6 (0.5) and the “pK a (conjugate acid of rescue reagent)” value [2] is given as 13.4. The “k rescue/ K m, phosphite” value (17X-PTDH-R301A [3]; pH 7.25) was 5.2 (1.1) M^−1 s^−1, the k rescue (17X-PTDH-R301A [3]; [11]) was 0.68 (0.04) s^−1 and the “[drawing 6] (Brønsted plot ordinate; uses K R corrected for free base concentration at pH 7.25)” value (17X-PTDH-R301A [3]; R301A, pH 7.25) was 7.2 (0.1). The EC50 (17X-PTDH-R301A [3]; R301A) was 55 mM, the “K m, phosphite (apparent)” value (17X-PTDH-R301A [3]; R301A, pH 7.25) was 130 (30) mM and the “Rescue of activity of the R301A mutant” value (17X-PTDH-R301A [3]) was “markedly improved”.

For `N=C(N)N` [guanidine], the “^D k cat” value (17X-PTDH-R301A [1]) is listed as 1.8 (0.1), the “^D k cat/K m” value (17X-PTDH-R301A [1]) is listed as 2.3 (0.1) and the “pK a (conjugate acid of rescue reagent)” value [2] is listed as 13.6. For the same molecule, the “k rescue/ K m, phosphite” value (17X-PTDH-R301A [3]; pH 7.25) was 41 (4) M^−1 s^−1, the k rescue (17X-PTDH-R301A [3]; [11]) was 1.2 (0.1) s^−1 and the “[drawing 6] (Brønsted plot ordinate; uses K R corrected for free base concentration at pH 7.25)” value (17X-PTDH-R301A [3]; R301A, pH 7.25) was 8.1 (0.1). The EC50 (17X-PTDH-R301A [3]; R301A) was 18 mM, the “K m, phosphite (apparent)” value (17X-PTDH-R301A [3]; R301A, pH 7.25) was 30 (3) mM and the “Rescue of activity of the R301A mutant” value (17X-PTDH-R301A [3]) was “markedly improved”.

In the case of `N=C(N)NN` [aminoguanidine], the “Ratio of concentrations of reagent (pH 7.5 : pH 7), protonated” value [4] is reported as 1.0, the “Ratio of concentrations of reagent (pH 7.5 : pH 7), unprotonated” value [4] is reported as 3.2 and the “Ratio of concentrations of reagent (pH 8 : pH 7), protonated” value [4] is reported as 1.0. For the same molecule, the “Ratio of concentrations of reagent (pH 8 : pH 7), unprotonated” value [4] was 10.0, the “Protonated (RNH3^+) proportion” value ([4]; pH 7.0) was 99.99% and the “Unprotonated (RNH2) proportion” value ([4]; pH 7.0) was 0.01%. For the same molecule, the “Protonated (RNH3^+) proportion” value ([4]; pH 7.5) was 99.97%, the “Unprotonated (RNH2) proportion” value ([4]; pH 7.5) was 0.03% and the “Protonated (RNH3^+) proportion” value ([4]; pH 8.0) was 99.90%. For the same molecule, the “Unprotonated (RNH2) proportion” value ([4]; pH 8.0) was 0.10%, the “^D k cat” value (17X-PTDH-R301A [1]) was 2.1 (0.1) and the “^D k cat/K m” value (17X-PTDH-R301A [1]) was 3.1 (0.3). The “pK a (conjugate acid of rescue reagent)” value [2] was 11.0, the “k rescue/ K m, phosphite” value (17X-PTDH-R301A [3]; pH 7.25) was 180 (10) M^−1 s^−1 and the k rescue (17X-PTDH-R301A [3]; [11]) was 1.4 (0.1) s^−1. For the same molecule, the “[drawing 6] (Brønsted plot ordinate; uses K R corrected for free base concentration at pH 7.25)” value (17X-PTDH-R301A [3]; R301A, pH 7.25) was 5.3 (0.1), the EC50 (17X-PTDH-R301A [3]; R301A) was 32 mM and the “K m, phosphite (apparent)” value (17X-PTDH-R301A [3]; R301A, pH 7.25) was 7.4 (0.5) mM. The “Activity with saturating rescue agent relative to wild-type activity” value (17X-PTDH-R301A [3]; R301A, saturating substrate and rescue agent) was “about 40%”, the “Rescue of activity of the R301A mutant” value (17X-PTDH-R301A [3]) was “markedly improved” and the “Ratio of slopes of k cat,apparent vs rescue agent concentration, pH 7.5 : pH 7.0” value (17X-PTDH-R301A [5]; [12]) was 1.2±0.1. The “Ratio of slopes of k cat,apparent vs rescue agent concentration, pH 8.0 : pH 7.0” value (17X-PTDH-R301A [5]; [12]) was 3.7±0.3, the “Ratio of slopes, pH 7.5 : pH 7.0” value (17X-PTDH-R301A [5]; [13]) was 1.6±0.1 and the “Ratio of slopes, pH 8.0 : pH 7.0” value (17X-PTDH-R301A [5]; [13]) was 3.0±0.1.

For phosphite, the Kd (17X-PTDH [6]) was 0.023 ± 0.006 mM, the “K m of phosphite” value (R301A; R301A, pH 8.0, no rescue agent) was 300 ± 35 mM and the Kd (R301A; calculated from ^D(V/K), ^DV and K m,Phosphite) was 13 ± 2 mM.

With `CCCCN` [butylamine, n-butylamine] the “Rescue of activity of the R301A mutant” value (17X-PTDH-R301A [3]) was “not observed”.

In the case of `CCNC(=N)N` [ethylguanidine], the “pK a (conjugate acid of rescue reagent)” value [2] is given as 13.3, the k rescue (17X-PTDH-R301A [3]; [11]) is given as 0.52 (0.13) s^−1 and the “[drawing 6] (Brønsted plot ordinate; uses K R corrected for free base concentration at pH 7.25)” value (17X-PTDH-R301A [3]; R301A, pH 7.25) is given as 6.1 (0.2). For the same molecule, the “Rescue of activity of the R301A mutant” value (17X-PTDH-R301A [3]) was “markedly improved”.

With `CN` [methylamine] the “Rescue of activity of H292A mutant” value (H292A mutant of wt-PTDH) was “no activity”, the “Rescue of activity of H292G mutant” value (H292G mutant of wt-PTDH) was “no activity” and the “Rescue of activity of the R301A mutant” value (17X-PTDH-R301A [3]) was “not observed”.

In the case of `c1nc[nH]n1` [1,2,4-triazole], the “Rescue of activity of H292A mutant” value (H292A mutant of wt-PTDH) is reported as “no activity; also recorded: failed to result in any activity” and the “Rescue of activity of H292G mutant” value (H292G mutant of wt-PTDH) is reported as “no activity; also recorded: failed to result in any activity”.

With `c1c[nH]cn1` [imidazole] the “Rescue of activity of H292A mutant” value (H292A mutant of wt-PTDH) was “no activity; also recorded: failed to result in any activity” and the “Rescue of activity of H292G mutant” value (H292G mutant of wt-PTDH) was “no activity; also recorded: failed to result in any activity”.

For `NC(=O)NO` [hydroxyurea], the “Rescue of activity of the R301A mutant” value (17X-PTDH-R301A [3]) was “not observed”.

With `O=S(O)O` [sulfite] the Ki (17X-PTDH-R301A [7]; R301A + saturating 300 mM aminoguanidine) was 0.078 mM, the Ki (17X-PTDH-R301A [7]; R301A, competitive vs phosphite, 4 mM NAD+) was 0.13 mM and the Ki (17X-PTDH [8]) was 0.00031 mM.

In the case of `NC(N)=S` [thiourea], the “Rescue of activity of the R301A mutant” value (17X-PTDH-R301A [3]) is reported as “not observed”.

In the case of `N=C(N)NC(N)=O` [N-guanylurea], the “pK a (conjugate acid of rescue reagent)” value [2] is given as 3.9, the “[drawing 6] (Brønsted plot ordinate; uses K R corrected for free base concentration at pH 7.25)” value (17X-PTDH-R301A [3]; pH 7.25) is given as −2.9 (0.2) and the k rescue (17X-PTDH-R301A [3]; pH 7.25) is given as 0.42 (0.07) s^−1.

In the case of `NC(N)=O` [urea], the “Rescue of activity of the R301A mutant” value (17X-PTDH-R301A [3]) is reported as “not observed”.

With `CCN` [ethylamine] the “Rescue of activity of the R301A mutant” value (17X-PTDH-R301A [3]) was “not observed”.

For `CC(=N)N` [acetamidine], the “^D k cat” value (17X-PTDH-R301A [1]) is listed as 1.5 (0.1), the “^D k cat/K m” value (17X-PTDH-R301A [1]) is listed as 1.8 (0.6) and the “pK a (conjugate acid of rescue reagent)” value [2] is listed as 12.5. For the same molecule, the “k rescue/ K m, phosphite” value (17X-PTDH-R301A [3]; pH 7.25) was 6.7 (1.1) M^−1 s^−1, the k rescue (17X-PTDH-R301A [3]; [11]) was 0.86 (0.08) s^−1 and the “[drawing 6] (Brønsted plot ordinate; uses K R corrected for free base concentration at pH 7.25)” value (17X-PTDH-R301A [3]; R301A, pH 7.25) was 6.3 (0.1). The EC50 (17X-PTDH-R301A [3]; R301A) was 63 mM, the “K m, phosphite (apparent)” value (17X-PTDH-R301A [3]; R301A, pH 7.25) was 130 (20) mM and the “Rescue of activity of the R301A mutant” value (17X-PTDH-R301A [3]) was “markedly improved”.

B1: wt enzyme: wild-type phosphite dehydrogenase from Pseudomonas stutzeri WM88 (protein, UniProt O69054 1-336, looked up)
Phosphonate dehydrogenase: MLPKLVITHRVHDEILQLLAPHCELMTNQTDSTLTREEILRRCRDAQAMMAFMPDRVDADFLQACPELRVVGCALKGFDNFDVDACTARGVWLTFVPDLLTVPTAELAIGLAVGLGRHLRAADAFVRSGEFQGWQPQFYGTGLDNATVGILGMGAIGLAMADRLQGWGATLQYHEAKALDTQTEQRLGLRQVACSELFASSDFILLALPLNADTQHLVNAELLALVRPGALLVNPCRGSVVDEAAVLAALERGQLGGYAADVFEMEDWARADRPRLIDPALLAHPNTLFTPHIGSAVRAVRLEIERCAAQNIIQVLAGARPINAANRLPKAEPAAC
In the case of B1, the “solvent isotope effect (SIE) on k cat” value [9] is listed as 1.55 and 1.55±0.07, the “observed combined SIE and substrate KIE on kcat” value ([9]; ref (1) Relyea et al., 2005) is listed as 2.48 and the “substrate KIE on kcat” value [10] is listed as 2.1.
